{"source": "paper PMC6199744", "about": "“Development of Chemical Proteomics for the Folateome and Analysis of the Kinetoplastid Folateome” (ACS Infectious Diseases, 2018)", "test_system": "L. major lysate proteins", "assay": "Multitargeted bead mixture chemoproteomics, single concentration competition, proteome-wide", "format": "binding", "data": [{"smiles": "NCCOCCOCC(=O)Nc1nc2ncc(CNc3ccc(C(=O)NC(CCC(=O)O)C(=O)O)cc3)nc2c(=O)[nH]1", "note": "(stereo not shown) [compound 6]", "values": [{"measurement": "fold change", "setting": "protein LMJF.35.0420 40S RIBOSOMAL PROTEIN S3A, PUTATIVE, vehicle control = 1", "result": 1.15}, {"measurement": "fold change relative to vehicle control", "setting": "protein LMJF.35.1220, SHORT CHAIN DEHYDROGENASE, PUTATIVE", "result": 1.09}, {"measurement": "fold change relative to vehicle control", "setting": "protein LMJF.35.1380, MIT[…], BETA SUBUNIT, PUTATIVE", "result": 1.08}, {"measurement": "fold change vs vehicle control", "setting": "protein LMJF.35.1830 HYPOTHETICAL PROTEIN, CONSERVED", "result": 0.93}, {"measurement": "fold change vs vehicle control", "setting": "protein LMJF.35.3340 6-phosphogluconate dehydrogenase", "result": 0.99}, {"measurement": "fold change", "setting": "protein LMJF.35.3700 GIM5A PROTEIN, PUTATIVE,GLYCOSOMAL MEMBRANE PROTEIN, vehicle control = 1", "result": 0.99}, {"measurement": "fold change vs vehicle control", "setting": "protein LMJF.35.3760 60S RIBOSOMAL PROTEIN L27A/L29, PUTATIVE", "result": 0.97}, {"measurement": "fold change relative to vehicle control", "setting": "protein LMJF.35.3840, […] 2 SUBUNIT, PUTATIVE", "result": 1.14}, {"measurement": "fold change vs vehicle control", "setting": "protein LMJF.35.3860 T-COMPLEX PROTEIN 1, ETA SUBUNIT, PUTATIVE", "result": 1}, {"measurement": "fold change", "setting": "protein LMJF.35.4420 MIT[…] TRANSPORTER, PUTATIVE, vehicle control = 1", "result": 1.05}, {"measurement": "fold change relative to vehicle control", "setting": "protein LMJF.35.4880, HY[…], CONSERVED (TPR repeat, putative)", "result": 1.34}, {"measurement": "fold change relative to vehicle control", "setting": "protein LMJF.35.5330, ISOPENTENYL-D[…]-ISOMERASE, PUTATIVE", "result": 1.14}, {"measurement": "fold change relative to vehicle control", "setting": "protein LMJF.36.0070, STRESS-INDUCIBLE PROTEIN STI1 HOMOLOG", "result": 1.56}, {"measurement": "fold change", "setting": "protein LMJF.36.0480 HYPOTHETICAL PROTEIN, CONSERVED, vehicle control = 1", "result": 0.98}, {"measurement": "fold change vs vehicle control", "setting": "protein LMJF.36.0620 HYPOTHETICAL PROTEIN, CONSERVED", "result": 0.81}, {"measurement": "fold change vs vehicle control", "setting": "protein LMJF.36.0930 40S RIBOSOMAL PROTEIN S18, PUTATIVE", "result": 1.15}, {"measurement": "fold change vs vehicle control", "setting": "protein LMJF.36.0990 40S RIBOSOMAL PROTEIN S10, PUTATIVE", "result": 0.99}, {"measurement": "fold change", "setting": "protein LMJF.36.1140 SHORT CHAIN 3-HYDROXYACYL-COA DEHYDROGENASE, PUTATIVE, vehicle control = 1", "result": 0.82}, {"measurement": "fold change relative to vehicle control", "setting": "protein LMJF.36.1260, FRUCTOSE-1,6-BI[…]", "result": 1.05}, {"measurement": "fold change", "setting": "protein LMJF.36.1340 N-ACETYLTRANSFERASE SUBUNIT NAT1, PUTATIVE, vehicle control = 1", "result": 0.91}, {"measurement": "fold change vs vehicle control", "setting": "protein LMJF.36.1650 […] 5 SUBUNIT, PUTATIVE", "result": 1.03}, {"measurement": "fold change relative to vehicle control", "setting": "protein LMJF.36.2380, STEROL 24-C-METHYLTRANSFERASE, PUTATIVE", "result": 1}, {"measurement": "fold change relative to vehicle control", "setting": "protein LMJF.36.2660, DIHYDROLIPOAMIDE ACETYLTRANSFERASE PRECURSOR, PUTATIVE", "result": 1}, {"measurement": "fold change vs vehicle control", "setting": "protein LMJF.36.2950 SUCCINYL-COA LIGASE GDP-FORMING] BETA-CHAIN, PUTATIVE", "result": 1.06}, {"measurement": "fold change vs vehicle control", "setting": "protein LMJF.36.3210 14-3-3 PROTEIN-LIKE PROTEIN", "result": 0.97}, {"measurement": "fold change vs vehicle control", "setting": "protein LMJF.36.3410 SHORT CHAIN DEHYDROGENASE-LIKE PROTEIN", "result": 1.22}, {"measurement": "fold change", "setting": "protein LMJF.36.3460 HYPOTHETICAL PROTEIN, CONSERVED (NIPSNAP, putative), vehicle control = 1", "result": 1.1}, {"measurement": "fold change", "setting": "protein LMJF.36.3580 HYPOTHETICAL PROTEIN, CONSERVED (Protein of unknown function (DUF2009), putative), vehicle control = 1", "result": 0.92}, {"measurement": "fold change", "setting": "protein LMJF.36.3750 40S RIBOSOMAL PROTEIN S27-1, PUTATIVE, vehicle control = 1", "result": 0.73}, {"measurement": "fold change vs vehicle control", "setting": "protein LMJF.36.5010 40S RIBOSOMAL PROTEIN SA, PUTATIVE", "result": 1.07}, {"measurement": "fold change vs vehicle control", "setting": "protein LMJF.36.5130 HY[…], CONSERVED", "result": 1.09}, {"measurement": "fold change vs vehicle control", "setting": "protein LMJF.36.5150 HY[…], CONSERVED", "result": 1.01}, {"measurement": "fold change relative to vehicle control", "setting": "protein LMJF.36.5380, NADH DEHYDROGENASE, PUTATIVE", "result": 0.94}, {"measurement": "fold change vs vehicle control", "setting": "protein LMJF.36.5390 PHOSPHORIBOSYLPYROPHOSPHATE SYNTHETASE, PUTATIVE", "result": 0.99}, {"measurement": "fold change vs vehicle control", "setting": "protein LMJF.36.5620 ISOLEUCYL-TRNA SYNTHETASE, PUTATIVE", "result": 1.03}, {"measurement": "fold change", "setting": "protein LMJF.36.6430 PROTEIN TRANSPORT PROTEIN SEC23-LIKE PROTEIN, vehicle control = 1", "result": 0.83}, {"measurement": "fold change vs vehicle control", "setting": "protein LMJF.36.6760 HY[…], CONSERVED", "result": 1.01}, {"measurement": "fold change relative to vehicle control", "setting": "protein LMJF.[…], MIT[…] BETA SUBUNIT, PUTATIVE", "result": 0.95}, {"measurement": "fold change relative to vehicle control", "setting": "protein LMJF.[…], POLY(A) EXPORT PROTEIN, PUTATIVE", "result": 1.14}, {"measurement": "fold change", "setting": "vs vehicle control, protein LINJ.20.0630 CYTIDINE TR[…], PUTATIVE,CTP SYNTHASE, PUTATIVE", "result": 1.07}, {"measurement": "fold change", "setting": "vs vehicle control, protein LINJ.20.1390 COATOMER BETA SUBUNIT, PUTATIVE", "result": 0.82}, {"measurement": "fold change", "setting": "vs vehicle control, protein LMJF.05.1140 VACUOLAR ATPASE SUBUNIT-LIKE PROTEIN", "result": 0.91}, {"measurement": "fold change", "setting": "vs vehicle control, protein LMJF.07.1090 DELTA-5 FATTY ACID DESATURASE", "result": 1}, {"measurement": "fold change", "setting": "vs vehicle control, protein LMJF.09.0220 HYPOTHETICAL PROTEIN, CONSERVED", "result": 0.97}, {"measurement": "fold change", "setting": "vs vehicle control, protein LMJF.11.1030 HYPOTHETICAL PROTEIN, CONSERVED", "result": 0.98}, {"measurement": "fold change", "setting": "vs vehicle control, protein LMJF.14.0640 FATTY ACID ELONGASE, PUTATIVE", "result": 0.92}, {"measurement": "fold change", "setting": "vs vehicle control, protein LMJF.14.0705 FATTY ACID ELONGASE, PUTATIVE", "result": 0.88}, {"measurement": "fold change", "setting": "vs vehicle control, protein LMJF.14.1120 KINESIN K39, PUTATIVE", "result": 0.71}, {"measurement": "fold change", "setting": "vs vehicle control, protein LMJF.16.1610 PROHIBITIN", "result": 1.16}, {"measurement": "fold change", "setting": "vs vehicle control, protein LMJF.17.0010 HYPOTHETICAL PROTEIN, CONSERVED", "result": 0.97}, {"measurement": "fold change", "setting": "vs vehicle control, protein LMJF.18.1130 RAS-RELATED PROTEIN RAB-5, PUTATIVE", "result": 0.75}, {"measurement": "fold change", "setting": "vs vehicle control, protein LMJF.19.1420 CYSTEINE PEPTIDASE A (CPA)", "result": 0.86}, {"measurement": "fold change", "setting": "vs vehicle control, protein LMJF.21.0280 HY[…], CONSERVED", "result": 0.84}, {"measurement": "fold change", "setting": "vs vehicle control, protein LMJF.22.1560 40S RIBOSOMAL PROTEIN L14, PUTATIVE", "result": 0.78}, {"measurement": "fold change", "setting": "vs vehicle control, protein LMJF.23.1220 T-COMPLEX PROTEIN 1, GAMMA SUBUNIT, PUTATIVE", "result": 1.06}, {"measurement": "fold change", "setting": "vs vehicle control, protein LMJF.24.0370 ASPARTATE AMINOTRANSFERASE, PUTATIVE", "result": 1.14}, {"measurement": "fold change", "setting": "vs vehicle control, protein LMJF.25.1770 ENOYL-COA REDUCTASE, PUTATIVE", "result": 1.08}, {"measurement": "fold change", "setting": "vs vehicle control, protein LMJF.26.0170 60S RIBOSOMAL PROTEIN L7, PUTATIVE", "result": 0.82}, {"measurement": "fold change", "setting": "vs vehicle control, protein LMJF.26.1550 TRI[…] ALPHA SUBUNIT, MIT[…]-LIKE PROTEIN", "result": 1.11}, {"measurement": "fold change", "setting": "vs vehicle control, protein LMJF.26.1610 PROLINE OXIDASE, MIT[…]-LIKE PROTEIN", "result": 1.02}, {"measurement": "fold change", "setting": "vs vehicle control, protein LMJF.28.1950 X-PRO, DIPEPTIDYL-PEPTIDASE,SERINE PEPTIDASE, CLAN SC, FAMILY S15, PUTATIVE", "result": 0.94}, {"measurement": "fold change", "setting": "vs vehicle control, protein LMJF.31.1070 BIOTIN/LIPOATE PROTEIN LIGASE-LIKE PROTEIN", "result": 0.89}, {"measurement": "fold change", "setting": "vs vehicle control, protein LMJF.32.1370 HYPOTHETICAL PROTEIN, CONSERVED", "result": 0.94}, {"measurement": "fold change", "setting": "vs vehicle control, protein LMJF.34.0490 IMPORTIN BETA-1 SUBUNIT, PUTATIVE", "result": 0.96}, {"measurement": "fold change", "setting": "vs vehicle control, protein LMJF.34.4060 UBIQUITIN HYDROLASE, PUTATIVE,CYSTEINE PEPTIDASE, CLAN CA, FAMILY C19, PUTATIVE", "result": 0.85}, {"measurement": "fold change", "setting": "vs vehicle control, protein LMJF.36.1600 […] 1 SUBUNIT, PUTATIVE", "result": 0.96}, {"measurement": "fold change", "setting": "vs vehicle control, protein LMJF.[…] RIBOSOMAL PROTEIN S7, PUTATIVE", "result": 1.2}]}]}
